According to PubChem BioAssay (NCI):
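Five compound concentrations were applied to cells in 96-well plates for 48 hours; endpoints were derived by simple linear interpolation of the resulting dose-response curve. Here, GI50 denotes the concentration required for 50% inhibition of growth. Definition used: TGI = concentration required for complete inhibition of growth.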

Legend:
Experiment in all cases: NCI tumour cell line growth inhibition, 48 h
SNB-75 CNS = test system: SNB-75 CNS
A549 NSCLC = test system: A549 NSCLC
SW-620 colon = test system: SW-620 colon
K-562 leukemia = test system: K-562 leukemia
CAKI-1 renal = test system: CAKI-1 renal
SR leukemia = test system: SR leukemia
SF-268 CNS = test system: SF-268 CNS
SK-MEL-5 melanoma = test system: SK-MEL-5 melanoma
NCI-H522 lung = test system: NCI-H522 lung
MOLT-4 leukemia = test system: MOLT-4 leukemia
A498 renal = test system: A498 renal
HT29 colon = test system: HT29 colon
UACC-257 melanoma = test system: UACC-257 melanoma
786-0 renal = test system: 786-0 renal
RPMI-8226 leukemia = test system: RPMI-8226 leukemia
SK-MEL-2 melanoma = test system: SK-MEL-2 melanoma
NCI-H23 lung = test system: NCI-H23 lung
IGROV1 ovarian = test system: IGROV1 ovarian
HS 578T breast = test system: HS 578T breast
MDA-MB-435 = test system: MDA-MB-435
HCT-15 colon = test system: HCT-15 colon
UACC-62 melanoma = test system: UACC-62 melanoma
SN12C renal = test system: SN12C renal
DU-145 prostate = test system: DU-145 prostate
NCI-H460 lung = test system: NCI-H460 lung
SNB-19 CNS = test system: SNB-19 CNS
NCI/ADR-RES ovarian = test system: NCI/ADR-RES ovarian
OVCAR-4 ovarian = test system: OVCAR-4 ovarian
LOX IMVI melanoma = test system: LOX IMVI melanoma
OVCAR-8 ovarian = test system: OVCAR-8 ovarian
SF-539 CNS = test system: SF-539 CNS
OVCAR-5 ovarian = test system: OVCAR-5 ovarian
KM12 colon = test system: KM12 colon
HOP-92 NSCLC = test system: HOP-92 NSCLC
OVCAR-3 ovarian = test system: OVCAR-3 ovarian
TK-10 renal = test system: TK-10 renal
ACHN renal = test system: ACHN renal
COLO 205 colon = test system: COLO 205 colon
SF-295 CNS = test system: SF-295 CNS
HOP-62 NSCLC = test system: HOP-62 NSCLC
BT-549 breast = test system: BT-549 breast
U251 CNS = test system: U251 CNS
MDA-MB-231 breast = test system: MDA-MB-231 breast
M14 melanoma = test system: M14 melanoma
MALME-3M melanoma = test system: MALME-3M melanoma
NCI-H226 lung = test system: NCI-H226 lung
HCC-2998 colon = test system: HCC-2998 colon
HCT-116 colon = test system: HCT-116 colon
PC-3 prostate = test system: PC-3 prostate
UO-31 renal = test system: UO-31 renal
EKVX NSCLC = test system: EKVX NSCLC
CCRF-CEM leukemia = test system: CCRF-CEM leukemia
SK-MEL-28 melanoma = test system: SK-MEL-28 melanoma
MDA-N = test system: MDA-N

Question: What does the source list for `Nc1ccc(-c2nc3ccc(F)cc3s2)cc1`?
Answer: TGI (SNB-75 CNS): 95 µM; TGI (A549 NSCLC): > 100 µM; TGI (SW-620 colon): > 100 µM; TGI (K-562 leukemia): > 100 µM; TGI (CAKI-1 renal): 95.5 µM; TGI (SR leukemia): > 100 µM; TGI (SF-268 CNS): > 100 µM; TGI (SK-MEL-5 melanoma): 37.8 µM; TGI (NCI-H522 lung): > 100 µM; TGI (MOLT-4 leukemia): > 100 µM; TGI (A498 renal): 80.3 µM; TGI (HT29 colon): > 100 µM; TGI (UACC-257 melanoma): > 100 µM; TGI (786-0 renal): > 100 µM; TGI (RPMI-8226 leukemia): 91.7 µM; TGI (SK-MEL-2 melanoma): 39.6 µM; TGI (NCI-H23 lung): > 100 µM; GI50 (IGROV1 ovarian): 21.3 µM; TGI (IGROV1 ovarian): 71.9 µM; TGI (HS 578T breast): > 100 µM; TGI (MDA-MB-435): 70.4 µM; TGI (HCT-15 colon): > 100 µM; TGI (UACC-62 melanoma): 31.3 µM; TGI (SN12C renal): > 100 µM; TGI (DU-145 prostate): 98.6 µM; GI50 (NCI-H460 lung): 24.4 µM; TGI (NCI-H460 lung): > 100 µM; TGI (SNB-19 CNS): > 100 µM; TGI (NCI/ADR-RES ovarian): > 100 µM; GI50 (OVCAR-4 ovarian): 23.1 µM; TGI (OVCAR-4 ovarian): > 100 µM; TGI (LOX IMVI melanoma): > 100 µM; TGI (OVCAR-8 ovarian): > 100 µM; TGI (SF-539 CNS): > 100 µM; GI50 (OVCAR-5 ovarian): 27.2 µM; TGI (OVCAR-5 ovarian): 73.6 µM; TGI (KM12 colon): 64.3 µM; TGI (HOP-92 NSCLC): > 100 µM; TGI (OVCAR-3 ovarian): 64.4 µM; TGI (TK-10 renal): 78.8 µM; TGI (ACHN renal): 66.6 µM; TGI (COLO 205 colon): 33.2 µM; TGI (SF-295 CNS): 60.7 µM; TGI (HOP-62 NSCLC): 90.8 µM; TGI (BT-549 breast): > 100 µM; TGI (U251 CNS): > 100 µM; TGI (MDA-MB-231 breast): 64 µM; TGI (M14 melanoma): > 100 µM; TGI (MALME-3M melanoma): > 100 µM; GI50 (NCI-H226 lung): 47 µM; TGI (NCI-H226 lung): > 100 µM; GI50 (HCC-2998 colon): 17.8 µM; TGI (HCC-2998 colon): 45.3 µM; TGI (HCT-116 colon): > 100 µM; TGI (PC-3 prostate): 92.6 µM; TGI (UO-31 renal): > 100 µM; TGI (EKVX NSCLC): > 100 µM; TGI (CCRF-CEM leukemia): > 100 µM; TGI (SK-MEL-28 melanoma): > 100 µM; TGI (MDA-N): > 100 µM
